Target: Bromodomain-containing protein 4 (Homo sapiens, UniProt O60885)
Test: Alphascreen Binding Assay: Binding of compounds of formula (I) with bromodomain 2, 3 4 was assessed using Alphascreen binding assay. The inhibition of the interaction between bromodomain and its acetylated target protein (Filippakopoulos P et al. 2012) was measured quantitatively using recombinant BRD proteins, an acetylated Histone 4 peptide and AlphaScreen technology. In absence of inhibition the BRD protein bound to AlphaScreen nickel chelate acceptor beads can interact with the acetylated Histone 4 peptide which is immobilized by the AlphaScreen Streptavidin coated beads. This interaction brings donor and acceptor beads in proximity. The close proximity allows the singlet oxygen produced by laser excitation of the donor beads to reach the acceptor beads and generate a luminescence signal. BRD inhibitors result in a decrease in the proximity signal through an inhibition of the BRD-acetylated peptide interaction.Recombinant human bromodomains containing the N-terminal bromodomain (BRD2-BD1 (71-194), BRD3-BD1 (24-144) and BRD4-BD1 (44-164)) or dual bromodomains (BRD4-BD12 (1-477), BRD4-BD12 (1-472)) were prepared and purified as described in protein expression and purification session.

## Cc1noc(C)c1-c1cnc2c(c1)c(CC1CCN(S(=O)(=O)c3ccccc3)CC1)cn2C
  IC50: < 1000 nM

— ChEMBL document CHEMBL5727461, “Heterocyclic compounds and uses thereof” (2019)
